Converted amounts (≈) assume the structure as drawn.
Key:
[1] = Blood concentration and AUC of LVFX after oral administration to rats, alone or with a metal-containing preparation; conditions: for blood concentration of LVFX after independent administration of the ester versus independent administration of LVFX / blood concentration of LVFX under concomitant use of polyvalent metal-containing antacid: 0-240 minutes
Method: A cannulation inner tube (Fuji Systems Corporation Ltd., Tokyo) having an internal diameter of 0.5 mm and an outside diameter of 1.0 mm which is used for blood collecting was inserted in the jugular vein of rats on the preceding day before the administration experiment, and the rats were made to abstain from food for 20 hours in an environment where only water can be taken in the animal room.
The polyvalent metal-containing preparation Al(OH)3 was administered in a dose of 30 mg/kg subject.
After administration of the drug, a blood sample was collected through a jugular vein cannulation inner tube in an amount of 200 μL each along the time elapsed (after 0, 15, 30, 45, 60, 90, 120, 180, and 240 minutes) in a 1-mL syringe treated with heparin, the blood was centrifuged for 5 minutes at 12,000 rpm and 4 deg C immediately, and 50 μL of a supernatant was taken to make plasma.
The following procedures were carried out successively: addition of 100 μL of methanol solution containing 10 μmol/L of CPFX as an internal standard substance to 50 μL of plasma, then stirring; centrifuging for 5 minutes at 6,200 rpm; sampling 100 μL of the supernatant with a syringe; filtering the sample solution using Millex (registered trademark)-HV (0.45 micrometer, MILLIPORE, Billerica, Mass., USA). […] The HPLC measurement conditions were as follows; the column used: TSK-GEL ODS-80 Ts (250×4.6 mm, TOSOH Corp., Tokyo), the mobile phase used: 20-mm sodium-phosphate buffer solution (pH 3.0)/acetonitrile=79:21 (v/v). The measurement was carried out using Shimazu SPD-20A Spectrometer detector (Shimadzu, Kyoto) with 280 nm detection wavelength, and flow rate was 1.0 mL/min. The retention times obtained by these conditions were 6.9 minutes for ENX, and 7.2 minutes for CPFX.
The differences of AUCs between 4 groups were computed by performing the multiple comparison by Dunnett's method, and the range of p<0.05 was understood as having a statistical significance.

[2] = Rat intestinal everted sac method: intestinal absorption and hydrolysis to LVFX, alone or with AlCl3; assay type: in vitro ADME; conditions: for LVFX concentration generated within the small intestine lumen from the ester alone versus LVFX alone / influence of simultaneous administration of AlCl3 on LVFX generated: incubation 60 minutes; for hydrolysis into LVFX: incubation for 60 minutes, small intestine; for drug substance LVFX as a hydrolysis product in the everted intestinal tract: ester
Method: 1. Glucose 200 mg was dissolved in 100 ml of 20 mM HEPES buffer isotonic sodium chloride solution, and pH is regulated at 7.4 with 5N- or 1N-sodium hydroxide by measuring pH (If pH rises, pH is modulated with 1N-hydrochloric acid.).
1. Similarly in the case of independent administration, glucose 200 mg is dissolved in 100 ml of 20 mM HEPES buffer isotonic sodium chloride solution, and pH is regulated at 7.4 with 5N- or 1N-sodium hydroxide by measuring pH (If pH rises, pH is modulated with 1N-hydrochloric acid.).
2. AlCl3 8.0 mg is dissolved (600 μM).
1. A SD type male rat of 8-week old after the birth is purchased and undergoes quarantine habituation for two days. After fasting for 24 hours, a pentobarbital sodium (50 mg/ml) is injected intraperitoneally in the amount (ml) of: rat weight (g)×0.05/50 (that is, weight (g)×0.001).
2. After the rat sleeps completely, it is incised in the abdomen so as to be observed from the stomach till the bladder, and the intestinal tract is removed from the end of the duodenum to the front 5 cm of the cecum.
3. The intestinal tract is cut off every 10 cm carefully, and all portions are washed with physiological saline (both circumference and inside of intestinal).
4. The intestinal tract is made reversed from the stomach side using a stainless steel tube.
5. The cecum side of the reversed intestinal tract is tied with sutures to make bag-shaped.
6. One (1) ml of the HEPES buffer isotonic sodium chloride solution adjusted is put in from the stomach side of the intestinal tract, and the intestinal tract is tied with a suture.
7. The tied intestinal tract is put in the HEPES buffer isotonic sodium chloride solution cooled upon ice, and is preserved.
2. One (1) ml of the drug solution is taken, and it is diluted with 9 ml of the HEPES buffer isotonic sodium chloride solution 10 times (2 mM).
3. A portion (5 ml) of the solution is further diluted with 95 ml of the HEPES buffer isotonic sodium chloride solution to 20 times (100 μM).
1. Thirty (30) ml of the diluted drug solution is taken to a 50-ml Erlenmeyer flask, and the intestinal tract containing a HEPES buffer isotonic sodium chloride solution is put in.
2. […]
3. The intestinal tract is taken out from the drug solution, and, after flushing and wiping off the drug solution attached to the surroundings of the intestinal tract with the physiological saline, all liquid in the intestinal tract is taken out into the Eppendorf tube.
4. The liquid is centrifuged for 5 minutes at 12,000 rpm.
5. 250 μL of a supernatant liquid is taken as a sample.
The method is the same as the HPLC measurement conditions mentioned above in-vivo experiment.

[3] = tested on: Enterobacter ATCC 23355; assay: MIC against Enterobacter ATCC 23355; assay type: cell-based; conditions: ATCC23355
Excerpt: (§1) The MIC activity unit in the table is μg/mL.

[4] = tested on: Escherichia coli NIH JC2; assay: MIC against Escherichia coli NIH JC2; assay type: cell-based; conditions: NIHJC2
Excerpt: as §1

[5] = tested on: Pseudomonas-aeruginosa ATCC 27853; assay: MIC (minimum inhibitory concentration) against Pseudomonas-aeruginosa ATCC 27853; assay type: cell-based
Excerpt: as §1

[6] = tested on: Escherichia coli ATCC 25922; assay: MIC against Escherichia coli ATCC 25922; assay type: cell-based; conditions: ATCC25922
Excerpt: as §1

[7] = tested on: Pseudomonas-aeruginosa (ATCC27853), Escherichia coli (ATCC25922 and NIH JC2), and Enterobacter (ZTCC23355); assay: Comparison of antibacterial activities of LVFX and LVFX-EHE over all tested strains; assay type: cell-based; conditions: all four strains of Table 11

SMILES	AUC of LVFX in blood on co-administration with the metal-containing preparation versus LVFX independent administration [1]	blood concentration of LVFX after independent administration of the ester versus independent administration of LVFX [1]	blood concentration of LVFX under concomitant use of polyvalent metal-containing antacid [1]	LVFX concentration generated within the small intestine lumen from the ester alone versus LVFX alone [2]	influence of simultaneous administration of AlCl3 on LVFX generated [2]	hydrolysis into LVFX [2]	MIC [3] [µg/mL]	MIC [4] [µg/mL]	MIC [5] [µg/mL]	absorption amount with AlCl3 as percent of LVFX administration alone ([2]; LVFX and AlCl3 concomitantly)	MIC [6] [µg/mL]	MIC values considered from clinical break points [7]	antibacterial activity as compared to that of LVFX ([7]; ratio to LVFX)	peak of LVFX in blood derived from the ester ([1]; ester administered alone)	peak of LVFX in blood derived from the ester ([1]; ester co-administered with Al(OH)3 30 mg/kg)	drug substance LVFX as a hydrolysis product in the everted intestinal tract ([2]; concomitant administration with aluminum chloride)	drug substance LVFX as a hydrolysis product in the everted intestinal tract ([2]; independent administration alone)
CC(C)OC(=O)OC(C)OC(=O)c1cn2c3c(c(N4CCN(C)CC4)c(F)cc3c1=O)OC[C@@H]2C (mixture of isomers) [LVFX-iPrHE, Levofloxacin isopropoxycarbonyl 1-ethyl hemiacetal-type ester]	no significant difference	A significant difference was not found	not influenced	no significant difference	no influence	completely hydrolyzed	–	–	–	–	–	–	–	–	–	–	–
C[C@H]1COc2c(N3CCN(C)CC3)c(F)cc3c(=O)c(C(=O)O)cn1c23 [LVFX, (3S)-9-fluoro-3-methyl-10-(4-methyl-1-piperazinyl)-7-oxo-2,3-dihydro-7H-pyrid [1,2,3-de] [1,4] benzoxazine-6-carboxylic acid, reference compound]	–	–	–	–	–	–	≤ 0.065	≤ 0.065	0.5 (≈ 1.38 µM)	about 54%	≤ 0.065	–	–	–	–	–	–
CCOC(=O)OC(C)OC(=O)c1cn2c3c(c(N4CCN(C)CC4)c(F)cc3c1=O)OC[C@@H]2C (stereo partly drawn) [LVFX-EHE, Levofloxacin ethoxycarbonyl-1-ethyl hemiacetal-type ester]	no significant difference	Significant differences were not observed	not influenced	no significant difference	no influence	completely hydrolyzed	2 (≈ 4.19 µM)	0.5 (≈ 1.05 µM)	8 (≈ 16.8 µM)	–	0.5 (≈ 1.05 µM)	non-sensitive to any bacterial strains	1/10	–	–	–	–
COC(=O)c1cn2c3c(c(N4CCN(C)CC4)c(F)cc3c1=O)OC[C@@H]2C [LVFX-M, (S)-Methyl-9-fluoro-3-methyl-10-(4-methylpiperazine-1-yl)-7-oxo-3,7-dihydro-2H-[1,4] oxazolino [2,3,4-ij] quinolin-6-carboxylate, reference compound]	–	–	–	–	–	–	–	–	–	–	–	–	–	no peak was detected	no peak was detected	not detected	not detected
